Source: publication PMC5805748 (2018)
One block for each compound: values may come before it.

Legend:
[1] = system: ERSI-D (DNA, G4) GGGTAGGGGCAAAGGGGCTGGGG; test: ITC; details: K+ 40 mM; 20 mM Tris-HCl, pH 7.4; 500 μM ligand into 25 μM DNA
[2] = system: VAV1-D (DNA, G4) GGGCAGGGAGGGAACTGGG; test: ITC; details: K+ 40 mM; 20 mM Tris-HCl, pH 7.4; 500 μM ligand into 25 μM DNA
[3] = system: 32 Kras-D (DNA, G4) AGGGCGGTGTGGGAAGAGGGAAGAGGGGGAGG; test: CD titration; details: no added salt; 20 mM Tris-HCl, pH 7.4; 0 to 30 μM ThT; induces parallel G4
[4] = system: 35B1(Kras)-D (DNA, G4) AGGGCGGTGTGGGAAGAGGGAAGAGGGGGAGGCAG; test: CD titration; details: no added salt; 20 mM Tris-HCl, pH 7.4; 0 to 30 μM ThT; induces parallel G4
[5] = system: 22Ag-D (DNA, G4) AGGGTTAGGGTTAGGGTTAGGG; test: ITC; details: K+ 40 mM; 20 mM Tris-HCl, pH 7.4; 500 μM ligand into 25 μM DNA
[6] = system: dx12-D (DNA, duplex) GCGTGAGTTCGG/CCGAACTCACGC; test: native PAGE post-staining; details: 20 μM ThT-E stain; no band
[7] = system: c-myc-D (DNA, G4) TGAGGGTGGGTAGGGTGGGTAA; test: UV-vis titration; details: 2 μM ThT-E, 0 to 8 μM DNA; 23 nm red shift
[8] = system: ADAM10-D (DNA, G4) GGGGGACGGGTAGGGGCGGGAGGTAGGGG; test: fluorescence light-up; details: K+ 40 mM; 20 mM Tris-HCl, pH 7.4; 2 μM ThT-E, 2 μM DNA; 159-fold
[9] = system: CT4-D (DNA, G4) GGGCTTTTGGGC; test: fluorescence light-up; details: K+ 40 mM; 20 mM Tris-HCl, pH 7.4; 2 μM ThT-E, 2 μM DNA
[10] = system: 19AT-D (DNA, duplex) ACGTCGATTATAGACGAGC/GCTCGTCTATAATCGACGT; test: native PAGE post-staining; details: 20 μM ThT-E stain; no band; fluorescence rise below 3-fold
[11] = system: G-tripl-D (DNA, other) GGTTGGTGTGG; test: native PAGE post-staining; details: 20 μM ThT-E stain; no band
[12] = system: 21CTA-D (DNA, G4) GGGCTAGGGCTAGGGCTAGGG; test: native PAGE post-staining; details: 20 μM ThT-E stain; band seen
[13] = system: BCL-2Mid-D (DNA, G4) GGGCGCGGGAGGAATTGGGCGGG; test: native PAGE post-staining; details: 20 μM ThT-E stain; band seen
[14] = system: Insulin a2-D (DNA, G4) ACAGGGGTGTGGGGACAGGGGTGTGGGG; test: native PAGE post-staining; details: 20 μM ThT-E stain; band seen
[15] = system: B-raf-D (DNA, G4) GGGCGGGGAGGGGGAAGGGA; test: fluorescence light-up; details: K+ 40 mM; 20 mM Tris-HCl, pH 7.4; 2 μM ThT-E, 2 μM DNA
[16] = system: TBA-D (DNA, G4) GGTTGGTGTGGTTGG; test: fluorescence light-up; details: K+ 40 mM; 20 mM Tris-HCl, pH 7.4; 2 μM ThT-E, 2 μM DNA
[17] = system: 32 Kras-D (DNA, G4) AGGGCGGTGTGGGAAGAGGGAAGAGGGGGAGG; test: fluorescence light-up; details: K+ 40 mM; 20 mM Tris-HCl, pH 7.4; 2 μM ThT-E, 2 μM DNA; 125-fold
[18] = system: c-myc-D (DNA, G4) TGAGGGTGGGTAGGGTGGGTAA; test: 1H NMR titration; details: K+ 40 mM; phosphate buffer, pH 7.4, 25 °C; stacks on 5'-end G-tetrad
[19] = system: 45Ag-D (DNA, G4) GGGTTAGGGTTAGGGTTAGGGTTAGGGTTAGGGTTAGGGTTAGGG; test: fluorescence light-up; details: K+ 40 mM; 20 mM Tris-HCl, pH 7.4; 2 μM ThT-E, 2 μM DNA; 146-fold
[20] = system: Bulges-TB1 (DNA, G4) TTGTGGTGGGTGGGTGGGT; test: fluorescence light-up; details: K+ 40 mM; 20 mM Tris-HCl, pH 7.4; 2 μM ThT-E; 46.05-fold
[21] = system: ssAf17-D (DNA, single strand) CTGAGTTGTATATATTCG; test: native PAGE post-staining; details: 20 μM ThT-E stain; no band; 2.77-fold fluorescence

dissociation constant [1]: 233.4 µM
dissociation constant [2]: 334.4 µM
binding [3]: yes
binding [4]: yes
dissociation constant [5]: 22.03 µM
SMILES: Cc1ccc2c(c1)sc(-c1ccc(N(C)C)cc1)[n+]2C

binding [6]: no
binding [7]: yes
dissociation constant [1]: 56.81 µM
binding [8]: yes
binding [9]: weak
binding [10]: no
dissociation constant [2]: 74.73 µM
binding [11]: no
binding [12]: yes
binding [13]: yes
binding [14]: yes
binding [15]: yes
binding [16]: weak
dissociation constant [5]: 17.78 µM
binding [17]: yes
binding [18]: yes
binding [19]: yes
binding [20]: yes
binding [21]: no
SMILES: CCN(CC)c1ccc(-c2sc3cc(C)ccc3[n+]2CC)cc1
